Experimental data taken from patent US12274684B2, “Treatment of vasculopathy with prostacyclin and mesenchymal stem cells” (United Therapeutics Corporation, priority 2013, dated 2025).

Test system: human bone marrow MSC
Assay: Bead-based immunoassay (Luminex) of cytokines in MSC culture supernatant
Format: cell-based
Details: 250 μg/mL, 24 h
Protocol: Human bone marrow MSC were expanded and seeded into six (6) T225 flasks using standard growth medium (Table 1). At 95-99% confluency, cells were thoroughly washed with PBS. Three (3) flasks were replenished with basal media containing 250 μg/mL treprostinil, (+)Tre, and the remaining three (3) flasks were replenished with unsupplemented basal media, (−)Tre. After 24 hours of culture, representative images were captured from (+) Tre and (−) Tre cultures. Conditioned media was collected from each replicate, divided into two samples of appropriate volumes, and analyzed separately for: 1) secreted proteins (Myriad RBM InflammationMAP® 1.0) and 2) exosome RNA content. Cells were lysed directly from culture flasks, processed for total RNA isolation, and analyzed for gene expression by microarray (Illumina Human HT12 Expression BeadChip). Bead-based immunoassays (Luminex) was performed to assess the concentration of 46 cytokines in cell culture supernatants (Myriad RBM Human InflammationMAP® 1.0). Of the 46 evaluated, 6 were differentially secreted in treprostinil-treated and -untreated MSC cultures (see Table 6, n=3 per group). Asterisks indicate statistical significance between the groups based on a Student's T Test (*p<0.001, or **p<0.0001).

## CCCCC[C@H](O)CC[C@@H]1[C@H]2Cc3cccc(OCC(=O)O)c3C[C@H]2C[C@H]1O [treprostinil]
  IL-6 production, fold more compared to control MSC: ~50 fold
  MCP-1 secretion, fold less than control MSC: 6-7 fold
DECREASED vs (−) Treprostinil 2.4 +/− 1.0 pg/ml
  Interleukin-8 (IL-8) secretion: Below detection
DECREASED vs (−) Treprostinil 29 +/− 3 ng/ml, p<0.001
  Tissue Inhibitor of Metalloproteinases 1 (TIMP-1) secretion: 12 ± 1 ng/mL
DECREASED vs (−) Treprostinil 379 +/− 35 pg/ml, p<0.0001
  Monocyte Chemotactic Protein 1 (MCP-1) secretion: 47 ± 9 pg/mL
INCREASED vs (−) Treprostinil 0.70 +/− 0.11 ng/mL
  Ferritin (FRTN) secretion: 0.96 ± 0.01 ng/mL
INCREASED vs (−) Treprostinil 62 +/− 6 pg/ml, p<0.0001
  Interleukin-6 (IL-6) secretion: 3580 ± 384 pg/mL
INCREASED vs (−) Treprostinil 235 +/− 16 pg/ml, p<0.0001
  Vascular Endothelial Growth Factor (VEGF) secretion: 612 ± 37 pg/mL
